# According to US11724992B2 (Novartis AG, priority 2017, dated 2023):
# pIC50: −log10 of the molar value.
# Test system: IL-1β production in PMA-differentiated THP-1 cells
# Test: IL-1β production in PMA-differentiated THP-1 cells stimulated with gramicidin (hTHP-1 assay, 2% fetal bovine serum; Procedures 1-3)
# Assay type: cell-based, human
# Conditions: Homo sapiens, THP-1, hTHP-1 assay containing 2% fetal bovine serum; bound; read-out: hTHP-1 IC50 (Average IC50 of compounds in hTHP-1 assay)
# Procedure, shortened: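 PMA-differentiated (20 ng/ml, 16-18 h) THP-1 cells in RPMI with 2% FBS, 50,000 cells/well, preincubated 1 h with compound (final 100–0.0017 μM, 0.37% DMSO), then stimulated with 5 μM gramicidin for 2 h. Supernatant IL-1β measured by HTRF.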
row,SMILES,pIC50
1,CNS(=O)(=NC(=O)N(C)c1c2c(cc3c1CCC3)CCC2)c1cnc(C(C)(C)O)s1 (stereo not shown) [Compound 249],< 4.52

# Same assay, conditions: Homo sapiens, THP-1, hTHP-1 assay containing 2% fetal bovine serum; class symbols; read-out: hTHP-1 IC50 (Average IC50 of compounds in hTHP-1 assay)
row,SMILES,pIC50
1,"CC(C)(O)c1ccc(S(N)(=O)=NC(=O)Nc2c3c(cc4c2CCC4)CCC3)c(F)c1 (stereo not shown) [Example 13, 2-fluoro-N′-(1,2,3,5,6,7-hexahydro-s-indacen-4-ylcarbamoyl)-4-(2-hydroxypropan-2-yl)benzenesulfonimidamide]",6.70 to 7.40
2,"CC(C)(O)c1csc(S(N)(=O)=NC(=O)Nc2c3c(c(Cl)c4c2CCC4)CCC3)c1 (stereo not shown) [Example 14, N′-(8-chloro-1,2,3,5,6,7-hexahydro-s-indacen-4-ylcarbamoyl)-4-(2-hydroxypropan-2-yl)thiophene-2-sulfonimidamide]",7.40 to 8.10
3,"CC(C)c1cc(C#N)c(F)c(C(C)C)c1NC(=O)N=S(N)(=O)c1cnc(C(C)(C)O)s1 (stereo not shown) [Example 15, N′-(4-cyano-3-fluoro-2,6-diisopropylphenylcarbamoyl)-2-(2-hydroxypropan-2-yl)thiazole-5-sulfonimidamide]",6.70 to 7.40
4,"CC(C)c1cc(F)cc(C(C)C)c1NC(=O)N=S(N)(=O)c1cnc(C(C)(C)O)s1 (stereo not shown) [Example 21, N′-(4-fluoro-2,6-diisopropylphenylcarbamoyl)-2-(2-hydroxypropan-2-yl)thiazole-5-sulfonimidamide]",6.70 to 7.40
5,"CN(C)Cc1ccc(S(N)(=O)=NC(=O)Nc2c3c(cc4c2CCC4)CCC3)cc1 (stereo not shown) [Example 28, 4-((dimethylamino)methyl)-N′-(1,2,3,5,6,7-hexahydro-s-indacen-4-ylcarbamoyl)benzenesulfonimidamide]",6.70 to 7.40
6,"CC(C)(O)c1cc(F)c(S(N)(=O)=NC(=O)Nc2c3c(c(F)c4c2CCC4)CCC3)s1 (stereo not shown) [Example 30, 3-fluoro-N′-(8-fluoro-1,2,3,5,6,7-hexahydro-s-indacen-4-ylcarbamoyl)-5-(2-hydroxypropan-2-yl)thiophene-2-sulfonimidamide]",7.40 to 8.10
7,"CC(C)c1cc(OC(F)F)cc(C(C)C)c1NC(=O)N=S(N)(=O)c1ncc(C(C)(C)O)s1 (stereo not shown) [Example 38, N′-(4-(difluoromethoxy)-2,6-diisopropylphenylcarbamoyl)-5-(2-hydroxypropan-2-yl)thiazole-2-sulfonimidamide]",6.70 to 7.40
8,CC(C)(O)c1ccc(S(N)(=O)=NC(=O)Nc2c3c(c(Cl)c4c2CCC4)CCC3)c(F)c1 (stereo not shown) [Example 41],6.70 to 7.40
9,"Cc1oc(S(N)(=O)=NC(=O)Nc2c3c(c(F)c4c2CCC4)CCC3)cc1C(C)(C)O (stereo not shown) [Example 45, N′-(8-fluoro-1,2,3,5,6,7-hexahydro-s-indacen-4-ylcarbamoyl)-4-(2-hydroxypropan-2-yl)-5-methylfuran-2-sulfonimidamide]",> 8.10
10,"CN(C)Cc1ccc(S(N)(=O)=NC(=O)Nc2c3c(cc4c2CCC4)CCC3)c(F)c1 (stereo not shown) [Example 48, 4-((dimethylamino)methyl)-2-fluoro-N′-(1,2,3,5,6,7-hexahydro-s-indacen-4-ylcarbamoyl)benzene-sulfonimidamide]",6.70 to 7.40
11,"CC(C)c1cc(F)cc(C(C)C)c1NC(=O)N=S(N)(=O)c1ccc(C(C)(C)O)s1 (stereo not shown) [Example 49, N′-(4-fluoro-2,6-diisopropylphenylcarbamoyl)-5-(2-hydroxypropan-2-yl)thiophene-2-sulfonimidamide]",6.00 to 6.70
12,"CC(C)(O)c1ccc(S(N)(=O)=NC(=O)Nc2c3c(c(F)c4c2CCC4)CCC3)c(Cl)c1 (stereo not shown) [Example 50, 2-chloro-N′-(8-fluoro-1,2,3,5,6,7-hexahydro-s-indacen-4-ylcarbamoyl)-4-(2-hydroxypropan-2-yl)benzenesulfonimidamide]",5.30 to 6.00

# Same assay, conditions: hTHP-1 assay containing 2% fetal bovine serum; class symbols; read-out: hTHP-1 IC50 (Average IC50 of compounds in hTHP-1 assay)
row,SMILES,pIC50
1,"CN1CCCC1c1ccc(S(=N)(=O)NC(=O)Nc2c3c(cc4c2CCC4)CCC3)cc1 (single isomer, unassigned) [Example 409, (R,S) or (S,R) or (S,R) or (R,R)-N-((1,2,3,5,6,7-hexahydro-s-indacen-4-yl)carbamoyl)-4-(1-methylpyrrolidin-2-yl)benzenesulfonimidamide]",6.00 to 6.70
2,"CN1CCCC1c1ccc(S(=N)(=O)NC(=O)Nc2c3c(cc4c2CCC4)CCC3)cc1 (single isomer, unassigned) [Example 410, (R,S) or (S,R) or (R,S or (S,S)-N-((1,2,3,5,6,7-hexahydro-s-indacen-4-yl)carbamoyl)-4-(1-methylpyrrolidin-2-yl)benzenesulfonimidamide]",6.70 to 7.40
3,"CN(C)Cc1ccc(S(N)(=O)=NC(=O)Nc2c3c(cc4c2CCC4)CCC3)nc1 (single isomer, unassigned) [Example 413, (R) or (S)-5-((dimethylamino)methyl)-N′-((1,2,3,5,6,7-hexahydro-s-indacen-4-yl)carbamoyl)pyridine-2-sulfonimidamide]",6.00 to 6.70
4,"CN(C)Cc1ccc(S(N)(=O)=NC(=O)Nc2c3c(cc4c2CCC4)CCC3)nc1 (single isomer, unassigned) [Example 414, (S) or (R)-5-((dimethylamino)methyl)-N′-((1,2,3,5,6,7-hexahydro-s-indacen-4-yl)carbamoyl)pyridine-2-sulfonimidamide]",4.52 to 5.30
5,"CC(=O)c1ncc(S(N)(=O)=NC(=O)Nc2c3c(cc4c2CCC4)CCC3)s1 (single isomer, unassigned) [Example 417, (R) or (S)-2-acetyl-N′-((1,2,3,5,6,7-hexahydro-s-indacen-4-yl)carbamoyl)thiazole-5-sulfonimidamide]",5.30 to 6.00
6,"CC(=O)c1ncc(S(N)(=O)=NC(=O)Nc2c3c(cc4c2CCC4)CCC3)s1 (single isomer, unassigned) [Example 418, (S) or (R)-2-acetyl-N′-((1,2,3,5,6,7-hexahydro-s-indacen-4-yl)carbamoyl)thiazole-5-sulfonimidamide]",6.70 to 7.40
7,"CC(C)(O)c1ncc(S(N)(=O)=NC(=O)Nc2cc3c(c4c2CCC4)CCC3)s1 (single isomer, unassigned) [Example 419, (R) or (S)-N′-((1,2,3,6,7,8-hexahydro-as-indacen-4-yl)carbamoyl)-2-(2-hydroxypropan-2-yl)thiazole-5-sulfonimidamide]",6.70 to 7.40
8,"CC(C)(O)c1ncc(S(N)(=O)=NC(=O)Nc2cc3c(c4c2CCC4)CCC3)s1 (single isomer, unassigned) [Example 420, (S) or (R)-N′-((1,2,3,6,7,8-hexahydro-as-indacen-4-yl)carbamoyl)-2-(2-hydroxypropan-2-yl)thiazole-5-sulfonimidamide]",5.30 to 6.00
9,"[2H]C1([2H])CCc2cc3c(c(NC(=O)N=S(N)(=O)c4cnc(C(C)(C)O)s4)c21)C([2H])([2H])CC3 (single isomer, unassigned) [Example 421, (R) or (S)-N′-((1,2,3,5,6,7-hexahydro-s-indacen-4-yl-3,3,5,5-d4)carbamoyl)-2-(2-hydroxypropan-2-yl)thiazole-5-sulfonimidamide]",7.40 to 8.10
10,"[2H]C1([2H])CCc2c1cc1c(c2NC(=O)N=S(N)(=O)c2cnc(C(C)(C)O)s2)CCC1([2H])[2H] (single isomer, unassigned) [Example 423, (R) or (S)-N′-((1,2,3,5,6,7-hexahydro-s-indacen-4-yl-1,1,7,7-d4)carbamoyl)-2-(2-hydroxypropan-2-yl)thiazole-5-sulfonimidamide]",7.40 to 8.10
11,CC(C)(O)c1ncc([S@@](N)(=O)=NC(=O)Nc2c3c(cc4c2CCC4)CCC3)s1 [Example 5],6.00 to 6.70
12,CC(C)(O)c1ncc([S@](N)(=O)=NC(=O)Nc2c3c(cc4c2CCC4)CCC3)s1 [Example 6],7.40 to 8.10
